For 22 molecules, IC50 results are on record in patent publication US20070270421A1, “Novel pyridine Derivative and Pyrimidine Derivative (1)” (priority 2004, published 2007).

The target of the assay is T1, HGFR (His6-HGFR cytoplasmic domain) (Homo sapiens, UniProt P08581).
T1 construct: made in house; host or cells: Spodoptera frugiperda Sf9 insect cells (baculovirus, pFastBac-HT)
As to the kind of experiment: Inhibitory activity against HGFR tyrosine kinase activity (HTRF). The class given is biochemical. Conditions: biotin-poly(GT), ATP, 30° C. 10 min, read-out: IC50 (concentration necessary to inhibit HGFR kinase activity by 50%). From the text:
The cytoplasmic domain of HGFR (Genbank Accession No. J02958) is a 1.3 kb DNA fragment beginning with Lys974 and including a stop codon, and described by Park et al. (Proc. Natl. Acad. Sci. U.S.A. 84(18), 6379-6383, 1987). The DNA fragment was isolated from the human placental cDNA library (purchased from Clontech) by PCR (TaKaRa Ex Taq™ Kit, purchased from TaKaRa) using two kinds of primers (SEQ ID NO: 1, 5′-[…]-3′ and SEQ ID NO: 2, 5′-[…]-3′, purchased from Invitrogen). The DNA fragment was cloned into a baculovirus transplace vector (pFastBac™-HT (purchased from GIBCO BRL)) to produce a recombinant construct. The construct was transfected into insect cells (Spodoptera frugiperda 9 (Sf9)) to produce a solution of HGFR transfected baculovirus (preparation of a recombinant baculovirus can be found in the standard text (Bac-to-Bac Baculovirus Expression System (GIBCO BRL)). The cloning of the other receptor tyrosine kinases and preparation of the recombinant baculovirus solutions were performed using a cytoplasmic fragment starting from Lys791 (VEGFR2, Genbank Accession No. L04947), a cytoplasmic fragment starting from Lys398 (FGFR1, Genbank Accession No. X52833) and a cytoplasmic fragment starting from Lys558 (PDGFRβ, Genbank Accession No. M21616) in stead of HGFR in the above method. EGFR was purchased from Sigma (Production No. E-2645).
To the suspension of Sf9 cells (3×10^8 cells) in SF-900II medium (purchased from Invitrogen) containing 2% FBS was added a solution of HGFR transfected baculovirus above (4 ml), followed by a shaking culture at 27° C. for 48 hrs. The cells infected with the HGFR transfected baculovirus were centrifuged at 1,000 rpm, 4° C. for 5 min to remove the supernatant. The precipitated infected cells were suspended in 80 ml of ice-cold PBS, and centrifuged at 1,000 rpm, 4° C. for 5 min to remove the supernatant. The precipitated infected cells were suspended in 40 ml of ice-cold Lysis Buffer (50 mM Tris-HCl (pH 8.5), 5 mM 2-mercaptoethanol, 100 mM KCl, 1 mM PMSF and 1% (v/v) NP-40). The suspension was centrifuged at 12,000 rpm, 4° C. for 30 min to provide a supernatant.
The supernatant was loaded onto an Ni-NTA agarose column (3 ml, purchased from Qiagen) equilibrated with 30 ml of Buffer A (20 mM Tris-HCl (pH 8.5), 5 mM 2-mercaptoethanol, 500 mM KCl, 20 mM imidazole and 10% (v/v) glycerol). The column was washed with 30 ml of Buffer A, 6 ml of Buffer B (20 mM Tris-HCl (pH 8.5), 5 mM 2-mercaptoethanol, 1 M KCl, and 10% (v/v) glycerol) and 6 ml of Buffer A in this order. Then, the column was eluted with 6 ml of Buffer C (20 mM Tris-HCl (pH 8.5), 5 mM 2-mercaptoethanol, 100 mM KCl, 100 mM imidazole, and 10% (v/v) glycerol) to provide a fraction. The fraction was entrapped in a dialysis membrane (purchased from Spectrum Laboratories), dialyzed at 4° C. overnight with 1 L of dialysis buffer (20 mM Tris-HCl (pH 7.5), 10% (v/v) glycerol, 1 mM dithiothreitol, 0.1 mM Na3VO4 and 0.1 mM EGTA), and stored at −80° C. until used. An aliquot of the dialyzed fraction was subjected to SDS electrophoresis, and then a recombinant protein (His6-HGFR, the HGFR cytoplasmic domain fused with six histidine at the N terminus) detected at a molecular weight of about 60 kDa when stained with Coomassie Brilliant Blue, was determined with regard to protein content using BSA (purchased from Sigma) as a standard. The VEGFR2 cytoplasmic domain, the FGFR1 cytoplasmic domain, and the PDGFRβ cytoplasmic domain were fused with six histidine at the N terminus by the similar method to produce respective recombinant proteins (His6-VEGFR2, His6-FGFR1, and His6-PDGFRβ). […]

T1 sequence (P08581 956-1390 limits assumed): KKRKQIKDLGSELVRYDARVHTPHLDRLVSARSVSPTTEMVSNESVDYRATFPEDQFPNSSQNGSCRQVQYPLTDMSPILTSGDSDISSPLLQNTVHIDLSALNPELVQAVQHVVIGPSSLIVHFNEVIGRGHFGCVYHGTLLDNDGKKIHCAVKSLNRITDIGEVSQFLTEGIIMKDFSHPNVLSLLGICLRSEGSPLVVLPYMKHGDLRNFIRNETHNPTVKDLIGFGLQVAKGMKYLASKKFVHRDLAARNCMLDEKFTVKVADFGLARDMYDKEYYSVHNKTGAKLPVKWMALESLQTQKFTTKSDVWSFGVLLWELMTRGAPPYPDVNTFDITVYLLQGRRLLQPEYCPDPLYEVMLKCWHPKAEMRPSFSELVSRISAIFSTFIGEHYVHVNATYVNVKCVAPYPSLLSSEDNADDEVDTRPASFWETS

On to `CN1CCC(N(C)C(=O)Nc2cc(Oc3ccc(NC(=S)NC(=O)Cc4ccc(F)cc4)c(F)c3)ccn2)CC1` [Example 289, 3-[4-(3-Fluoro-4-{3-[2-(4-fluorophenyl)acetyl]thioureido}phenoxy)pyridin-2-yl]-1-methyl-1-(1-methylpiperidin-4-yl)urea], for which the IC50 worked out at 67 nM.

For the molecule `O=C(Cc1ccccc1)NC(=S)Nc1ccc(Oc2cc(NC(=O)N3CCC(N4CCCC4)CC3)ncn2)c(F)c1` [Example 8, 4-(Pyrrolidin-1-yl)piperidine-1-carboxylic acid {6-[2-fluoro-4-(3-phenylacetylthioureido)phenoxy]pyrimidin-4-yl}amide], the IC50 worked out at 83 nM.

With `O=C(Cc1ccccc1)NC(=S)Nc1ccc(Oc2cc(NC(=O)N3CCC(CN4CCC4)CC3)ncn2)c(F)c1` [Example 393, 4-(Azetidin-1-ylmethyl)piperidine-1-carboxylic acid {6-[2-fluoro-4-(3-phenylacetylthioureido)phenoxy]pyrimidin-4-yl}amide], the IC50 stood at 56 nM.

With `CN(C)C1CCN(C(=O)Nc2cc(Oc3ccc(NC(=S)NC(=O)Cc4ccccc4)cc3F)ccn2)CC1` [Example 38, 2-{[4-(Dimethylamino)piperidin-1-yl]carbonylamino}-4-{2-fluoro-4-[3-(2-phenylacetyl)thioureido]phenoxy}pyridine], the IC50 amounted to 26 nM.

As to `O=C(Cc1ccccc1)NC(=O)Nc1ccc(Oc2ccnc(NC(=O)N3CCCC3)c2)cc1Cl` [Example 47, Pyrrolidine-1-carboxylic acid {4-[3-chloro-4-(3-phenylacetylureido)phenoxy]pyridin-2-yl}amide], the IC50 came out at 100 nM.

Turning to `CN(C)CCN1CCC(N(C)C(=O)Nc2cc(Oc3ccc(NC(=S)NC(=O)Cc4ccc(F)cc4)cc3F)ncn2)CC1` [Example 184, 1-[1-(2-Dimethylaminoethyl)piperidin-4-yl]-3-[6-(2-fluoro-4-{3-[2-(4-fluorophenyl)acetyl]thioureido}phenoxy)pyrimidin-4-yl]-1-methylurea], the IC50 is 130 nM.

Take `CN(C)CC1CCN(C(=O)Nc2cc(Oc3ccc(NC(=O)NC(=O)Cc4ccc(F)cc4)cc3F)ccn2)CC1` [Example 347, 2-{[4-(Dimethylaminomethyl)piperidin-1-yl]carbonylamino}-4-(2-fluoro-4-{3-[2-(4-fluorophenyl)acetyl]ureido}phenoxy)pyridine]: the IC50 turned out to be 62 nM.

For `CN(C)C(=O)Nc1cc(Oc2ccc(NC(=S)NC(=O)CC3CCCCC3)cc2F)ccn1` [Example 16, 2-[(Dimethylamino)carbonylamino]-4-{2-fluoro-4-[3-(2-cyclohexylacetylthio)ureido]phenoxy}pyridine], the IC50 turned out to be 56 nM.

With `CN(C)CCN1CCC(N(C)C(=O)Nc2cc(Oc3ccc(NC(=S)NC(=O)Cc4ccc(F)cc4)c(F)c3)ccn2)CC1` [Example 183], the IC50 was 160 nM.

Regarding `CN(C)C(=O)Nc1cc(Oc2ccc(NC(=O)NC(=O)Cc3ccc(F)cc3)cc2F)ncn1` [Example 51, 3-[6-(2-Fluoro-4-{3-[2-(4-fluorophenyl)acetyl]ureido}phenoxy)pyrimidin-4-yl]-1,1-dimethylurea], the IC50 is 18 nM.

For the molecule `CN1CCC[C@H](N(C)C(=O)Nc2cc(Oc3ccc(NC(=S)NC(=O)Cc4ccc(F)cc4)cc3F)ncn2)C1` [Example 322, 3-[6-(2-Fluoro-4-{3-[2-(4-fluorophenyl)acetyl]thioureido}phenoxy)pyrimidin-4-yl]-1-methyl-1-[(3S)-1-methylpiperidin-3-yl]urea], the IC50 was determined as 43 nM.

For `CN(C)CC1CCN(C(=O)Nc2cc(Oc3ccc(NC(=S)NC(=O)Cc4ccccc4)cc3F)ccn2)CC1` [Example 311, 2-{[4-(Dimethylaminomethyl)piperidin-1-yl]carbonylamino}-4-(2-fluoro-4-{3-[2-(phenyl)acetyl]thioureido}phenoxy)pyridine], the IC50 came to 48 nM.

Turning to `CN1CC(N2CCN(C(=O)Nc3cc(Oc4ccc(NC(=S)NC(=O)Cc5ccc(F)cc5)cc4F)ncn3)CC2)C1` [Example 196], the IC50 was 57 nM.

Take `O=C(Cc1ccccc1)NC(=S)Nc1ccc(Oc2ccnc(NC(=O)N3CCN(CCN4CCC4)CC3)c2)c(F)c1` [Example 397, 4-[2-(Azetidin-1-yl)ethyl]piperazine-1-carboxylic acid {4-[2-fluoro-4-(3-phenylacetylthioureido)phenoxy]pyridin-2-yl}amide]: the IC50 amounted to 55 nM.

Consider `CN(C)C(=O)Nc1cc(Oc2ccc(NC(=S)NC(=O)Cc3ccc(F)cc3)cc2F)ncn1` [Example 7, 3-[6-(2-Fluoro-4-{3-[2-(4-fluorophenyl)acetyl]thioureido}phenoxy)pyrimidin-4-yl]-1,1-dimethylurea], for which the IC50 was 18 nM.

In the case of `CN1CCN(C2CCN(C(=O)Nc3cc(Oc4ccc(NC(=O)NC(=O)Cc5ccc(F)cc5)cc4)ccn3)CC2)CC1` [Example 344, 4-(4-{3-[2-(4-Fluorophenyl)acetyl]ureido}phenoxy)-2-{[4-(1-methylpiperazin-4-yl)piperidin-1-yl]carbonylamino}pyridine], the IC50 came out at 110 nM.

`CN1CC[C@H](N(C)C(=O)Nc2cc(Oc3ccc(NC(=S)NC(=O)Cc4ccc(F)cc4)c(F)c3)ncn2)C1` [Example 281, 3-[6-(3-Fluoro-4-{3-[2-(4-fluorophenyl)acetyl]thioureido}phenoxy)pyrimidin-4-yl]-1-methyl-1-[(3S)-1-methylpyrrolidin-3-yl]urea]: the IC50 was 28 nM.

Turning to `CN(C)CCN1CCC(N(C)C(=O)Nc2cc(Oc3ccc(NC(=S)NC(=O)Cc4ccccc4)cc3F)ccn2)CC1` [Example 223, 1-[1-(2-Dimethylaminoethyl)piperidin-4-yl]-3-{4-[2-fluoro-4-(3-phenylacetylthioureido)phenoxy]pyridin-2-yl}-1-methylurea], the IC50 is 58 nM.

For the molecule `CN1CC(N2CCN(C(=O)Nc3cc(Oc4ccc(NC(=O)NC(=O)Cc5ccc(F)cc5)cc4F)ccn3)CC2)C1` [Example 383, 4-(1-Methylazetidin-3-yl)piperazine-1-carboxylic acid [4-(2-fluoro-4-{3-[2-(4-fluorophenyl)acetyl]ureido}phenoxy)pyridin-2-yl]amide], the IC50 stood at 94 nM.

As to `O=C(Cc1ccccc1)NC(=S)Nc1ccc(Oc2ccnc(NC(=O)N3CCC(N4CCC(O)CC4)CC3)c2)c(F)c1` [Example 185, 4-{2-Fluoro-4-[3-(2-phenylacetyl)thioureido]phenoxy}-2-{[4-(4-hydroxypiperidin-1-yl)piperidin-1-yl]carbonylamino}pyridine], the IC50 was found to be 47 nM.

Turning to `CN1CCC(N2CCN(C(=O)Nc3cc(Oc4ccc(NC(=S)NC(=O)Cc5ccc(F)cc5)cc4)ccn3)CC2)CC1` [Example 329, 4-(4-{3-[2-(4-Fluorophenyl)acetyl]thioureido}phenoxy)-2-{[4-(1-methylpiperidin-4-yl)piperazin-1-yl]carbonylamino}pyridine], the IC50 turned out to be 64 nM.

With `CN(C)C1CN(C2CCN(C(=O)Nc3cc(Oc4ccc(NC(=S)NC(=O)Cc5ccc(F)cc5)cc4)ccn3)CC2)C1` [Example 195, 4-[3-(Dimethylamino)azetidin-1-yl]piperidine-1-carboxylic acid [4-(4-{3-[2-(4-fluorophenyl)acetyl]thioureido}phenoxy)pyridin-2-yl]amide], the IC50 was determined as 57 nM.
